Test results taken from patent US20140178318A1, “NOVEL COMPOUNDS” (DSM IP ASSETS B.V., priority 2009, published 2014).

Assay: Comparative example: solubility of BMDBM in 1:1 mixture of C12-15 alkyl benzoate and other UV-filter
Source text: Where necessary the mixture was centrifuged in order to obtain a clear supernatant.

Which results are given for `CCCCC(CC)COc1ccc(-c2nc(-c3ccc(OC)cc3)nc(-c3ccc(OCC(CC)CCCC)cc3O)n2)c(O)c1` (stereo not drawn) [BEMT, bis-ethylhexyloxyphenol methoxyphenyl triazine]?
Solubility of BMDBM in C12-15 alkyl benzoate/UV-filter 1:1 (200 mg BMDBM with 1000 mg of 1:1 mixture, supernatant by HPLC after 1 month at RT): 3 wt.-%; Δ solubility related to cosmetic solvent (BMDBM) (C12-15 alkyl benzoate/UV-filter 1:1): −4 wt.-%; Δ solubility of BMDBM (C12-15 alkyl benzoate/UV-filter 1:1 versus C12-15 alkyl benzoate): −11 wt.-%
